The source of these data is publication PMC5797744, “Molecular Features Underlying Selectivity in Chicken Bitter Taste Receptors” (Frontiers in Molecular Biosciences, 2018).

The assay deals with T1, ggTas2r2 (Gallus gallus, UniProt A0A1D5PXM6).
T1 construct: gene LOC101747503; transient expression in HEK 293T stably expressing Galpha16gust44; printed residues Gly85, Trp88, Asn92, Tyr180, Leu184, Tyr243, Ser246, Gln250
T1 sequence (A0A1D5PXM6 1-311): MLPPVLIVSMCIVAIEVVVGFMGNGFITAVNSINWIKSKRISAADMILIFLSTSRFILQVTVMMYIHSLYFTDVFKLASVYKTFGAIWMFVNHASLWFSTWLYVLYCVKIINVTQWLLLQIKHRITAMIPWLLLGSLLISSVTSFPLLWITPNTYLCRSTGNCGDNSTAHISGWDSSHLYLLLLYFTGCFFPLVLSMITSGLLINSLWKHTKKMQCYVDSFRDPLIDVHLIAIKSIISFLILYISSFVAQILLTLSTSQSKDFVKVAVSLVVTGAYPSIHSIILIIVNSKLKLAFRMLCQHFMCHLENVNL
The experiment in a line: calcium mobilization, Fluo4-AM, FLIPR, dose-response. Format: cell-based. The conditions noted are these: agonist; HEK 293T with Galpha16gust44; 2.5 mM probenecid at loading.

As for `C=C[C@H]1CN2CC[C@H]1C[C@@H]2[C@H](O)c1ccnc2ccc(OC)cc12` [epiquinidine], the “calcium mobilization, Fluo4-AM, FLIPR, dose-response” value was “Epiquinidine and ethylhydrocupreine can still activate ggTas2r2 and ggTas2r7”.

For the molecule `CCOc1ccc2nccc([C@@H](O)[C@@H]3C[C@@H]4CCN3C[C@@H]4CC)c2c1` [ethylhydrocupreine], the “calcium mobilization, Fluo4-AM, FLIPR, dose-response” value is “Epiquinidine and ethylhydrocupreine can still activate ggTas2r2 and ggTas2r7”.
